Measurements as given in patent US9751874B2, “Hydroxy containing FXR (NR1H4) modulating compounds” (Gilead Sciences, Inc., priority 2014, dated 2017).

What was measured:
[1] = biological target: T1, human FXR alpha ligand binding domain (Homo sapiens, UniProt Q96RI1); assay: FRET activity assay (ligand mediated cofactor peptide interaction, LANCE); format: biochemical; conditions: GST-FXR-LBD / biotinylated SRC-1 peptide (676-700), read-out: F EC50
T1 construct: made in house; host or cells: E. coli BL21(DE3), vector pDEST15
T1 sequence (Q96RI1 187-472 isoform Q96RI1-2): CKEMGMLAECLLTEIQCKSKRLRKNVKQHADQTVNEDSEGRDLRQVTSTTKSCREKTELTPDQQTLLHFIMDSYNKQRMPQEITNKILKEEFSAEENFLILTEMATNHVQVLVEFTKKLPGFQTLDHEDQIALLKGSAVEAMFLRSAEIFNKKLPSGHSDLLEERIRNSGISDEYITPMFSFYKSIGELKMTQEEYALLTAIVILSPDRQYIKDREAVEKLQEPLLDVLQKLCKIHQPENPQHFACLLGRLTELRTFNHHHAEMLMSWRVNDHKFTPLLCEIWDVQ
How it was run: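 GST-tagged FXR LBD (aa 187–472, E. coli-expressed) at 20–60 ng/well with 200–600 nM biotinylated SRC-1 peptide (676–700), streptavidin-APC and Eu anti-GST in Tris pH 7.5 buffer, 1% DMSO, equilibrated 1 h dark at room temperature. TR-FRET read as 665/615 nm ratio; agonists raise signal above basal.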

[2] = biological target: T2, FXR ligand binding domain (Homo sapiens, UniProt Q96RI1); assay: Mammalian One Hybrid (M1H) assay, Gal4 promoter driven transactivation in HEK293 cells; format: cell-based; conditions: Gal4-FXR-LBD luciferase reporter, 16 h
T2 construct: expressed in transfected cells; host or cells: HEK293 cells, transiently transfected with pCMV-BD-FXR-LBD, pFR-Luc and pRL-CMV
T2 sequence (Q96RI1 187-472 isoform Q96RI1-2): T1 sequence (Q96RI1 187-472 isoform Q96RI1-2)
How it was run: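 HEK293 cells were transiently co-transfected with Gal4-DBD fused to the human FXR LBD (aa 187-472, NM_005123), a 5×GAL4-site firefly luciferase reporter and CMV-Renilla control. Compounds were added 2-4 h post-transfection (vehicle ≤0.1%) in charcoal/dextran-stripped FBS medium for 16 h. Firefly and Renilla luciferase were read sequentially, in triplicate.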

Structure (SMILES) | EC50 [1] [µM] | EC50 [2] [µM]
O=C(O)c1ccc2nc(C3(O)CCC(OCc4c(-c5c(Cl)cccc5Cl)noc4C4CC4)C3)sc2c1 (centres unmarked) [Example 11-57, 2-(3-((5-Cyclopropyl-3-(2,6-dichlorophenyl)isoxazol-4-yl)methoxy)-1-hydroxy-cyclopentyl)benzo[d]thiazole-6-carboxylic acid] | 0.031 | 0.029
O=C(O)c1ccc2nc([C@]3(O)CC[C@@H](OCc4c(-c5c(Cl)cccc5Cl)noc4C4CC4)CC3)sc2c1F [Example 14-1, 2-((1s,4s)-4-((5-Cyclopropyl-3-(2,6-dichlorophenyl)isoxazol-4-yl)methoxy)-1-hydroxycyclohexyl)-7-fluorobenzo[d]thiazole-6-carboxylic acid] | 0.025 | 0.55
O=C(O)C1(Oc2cc(F)cc([C@]3(O)[C@@H]4CC[C@H]3C[C@H](OCc3c(-c5c(Cl)cccc5Cl)noc3C3CC3)C4)c2)CC1 [Example 14-3, 1-(3-((1R,3s,5S,8r)-3-((5-Cyclopropyl-3-(2,6-dichlorophenyl)isoxazol-4-yl)methoxy)-8-hydroxybicyclo[3.2.1]octan-8-yl)-5-fluorophenoxy)cyclopropanecarboxylic acid] | 0.041 | 0.52
O[C@@]1(c2nc3ccc(Br)cc3s2)[C@@H]2CC[C@H]1C[C@H](OCc1c(-c3c(Cl)cccc3Cl)noc1C1CC1)C2 [Example 15-1, (1R,3s,5S,8r)-8-(6-Bromobenzo[d]thiazol-2-yl)-3-((5-cyclopropyl-3-(2,6-dichlorophenyl)isoxazol-4-yl)methoxy)bicyclo[3.2.1]octan-8-ol] | 0.037 | 0.077
O=C(NCCN1CCOCC1)c1cc(F)c2nc([C@]3(O)CC[C@@H](OCc4c(-c5c(Cl)cncc5Cl)noc4C4CC4)CC3)sc2c1 [Example 17, 2-((1s,4s)-4-((5-Cyclopropyl-3-(3,5-dichloropyridin-4-yl)isoxazol-4-yl)methoxy)-1-hydroxycyclohexyl)-4-fluoro-N-(2-morpholinoethyl)benzo[d]thiazole-6-carboxamide] | 0.15 | 0.67
NC(=O)c1cc(F)c2nc([C@]3(O)CC[C@@H](OCc4c(-c5c(Cl)cncc5Cl)noc4C4CC4)CC3)sc2c1 [Example 18, 2-((1s,4s)-4-((5-Cyclopropyl-3-(3,5-dichloropyridin-4-yl)isoxazol-4-yl)methoxy)-1-hydroxycyclohexyl)-4-fluorobenzo[d]thiazole-6-carboxamide] | 0.098 | 0.44
CC(C)(O)c1cc(F)c2nc([C@]3(O)CC[C@@H](OCc4c(-c5c(Cl)cncc5Cl)noc4C4CC4)CC3)sc2c1 [Example 20, (1s,4s)-4-((5-Cyclopropyl-3-(3,5-dichloropyridin-4-yl)isoxazol-4-yl)methoxy)-1-(4-fluoro-6-(2-hydroxypropan-2-yl)benzo[d]thiazol-2-yl)cyclohexanol] | 0.15 | 0.2
O[C@]1(c2nc3c(F)cc(-c4nnn[nH]4)cc3s2)CC[C@H](OCc2c(-c3c(Cl)cccc3Cl)noc2C2CC2)CC1 [Example 21, (1s,4s)-4-((5-Cyclopropyl-3-(2,6-dichlorophenyl)isoxazol-4-yl)methoxy)-1-(4-fluoro-6-(1H-tetrazol-5-yl)benzo[d]thiazol-2-yl)cyclohexanol] | 0.064 | 1.7
OC1(c2nc3ccccc3s2)C2CC3CC1CC(OCc1c(-c4c(Cl)cccc4Cl)noc1C1CC1)(C3)C2 [Example 24a, (1R,2r,3S,5s,7s)-2-(Benzo[d]thiazol-2-yl)-5-((5-cyclopropyl-3-(2,6-dichlorophenyl)isoxazol-4-yl)methoxy)adamantan-2-ol] | 0.049 | 0.14
O=C(O)c1ccnc2cc([C@]3(O)CC[C@@H](OCc4c(-c5c(Cl)cccc5Cl)noc4C4CC4)CC3)ccc12 [Example 29, 7-((1s,4s)-4-((5-cyclopropyl-3-(2,6-dichlorophenyl)isoxazol-4-yl)methoxy)-1-hydroxycyclohexyl)quinoline-4-carboxylic acid] | 0.051 | 2.6
O=Cc1nsc2ccc([C@]3(O)CC[C@@H](OCc4c(-c5c(Cl)cccc5Cl)noc4C4CC4)CC3)cc12 [Example 32, 5-((1s,4s)-4-((5-Cyclopropyl-3-(2,6-dichlorophenyl)isoxazol-4-yl)methoxy)-1-hydroxycyclohexyl)benzo[d]isothiazole-3-carbaldehyde] | 0.19 | 0.4

Continued by falling EC50 [1], values first:

EC50 [1] [µM] | EC50 [2] [µM] | Structure (SMILES)
4.9 | > 3 | O=C(O)c1ccnc2ccc([C@]3(O)CC[C@H](OCc4c(-c5c(Cl)cccc5Cl)noc4C4CC4)CC3)cc12 [Example 31, 6-((1r,4r)-4-((5-cyclopropyl-3-(2,6-dichlorophenyl)isoxazol-4-yl)methoxy)-1-hydroxycyclohexyl)quinoline-4-carboxylic acid]
0.24 | 0.73 | O[C@@]1(c2nc3ccccc3s2)[C@@H]2CC3C[C@H]1C[C@](OCc1c(-c4c(Cl)cccc4Cl)noc1C1CC1)(C3)C2 [Example 24b, (1R,2s,3S,5s,7s)-2-(benzo[d]thiazol-2-yl)-5-((5-cyclopropyl-3-(2,6-dichlorophenyl)isoxazol-4-yl)methoxy)adamantan-2-ol]
0.19 | > 3 | O=C(O)c1ccnc2ccc([C@]3(O)CC[C@@H](OCc4c(-c5c(Cl)cccc5Cl)noc4C4CC4)CC3)cc12 [Example 30, 6-((1s,4s)-4-((5-Cyclopropyl-3-(2,6-dichlorophenyl)isoxazol-4-yl)methoxy)-1-hydroxycyclohexyl)quinoline-4-carboxylic acid]
0.12 | 2.7 | O=C(O)c1nsc2ccc([C@]3(O)CC[C@@H](OCc4c(-c5c(Cl)cccc5Cl)noc4C4CC4)CC3)cc12 [Example 33, 5-((1s,4s)-4-((5-Cyclopropyl-3-(2,6-dichlorophenyl)isoxazol-4-yl)methoxy)-1-hydroxycyclohexyl)benzo[d]isothiazole-3-carboxylic acid]
0.032 | 2.7 | O=C(O)c1c(F)cc2nc([C@]3(O)CC[C@@H](OCc4c(-c5c(Cl)cccc5Cl)noc4C4CC4)CC3)sc2c1F [Example 14-2, 2-((1s,4s)-4-((5-Cyclopropyl-3-(2,6-dichlorophenyl)isoxazol-4-yl)methoxy)-1-hydroxycyclohexyl)-5,7-difluorobenzo[d]thiazole-6-carboxylic acid]
0.022 | 1.9 | CS(=O)(=O)NC(=O)c1cc(F)c2nc([C@]3(O)CC[C@@H](OCc4c(-c5c(Cl)cccc5Cl)noc4C4CC4)CC3)sc2c1 [Example 16, 2-((1s,4s)-4-((5-Cyclopropyl-3-(2,6-dichlorophenyl)isoxazol-4-yl)methoxy)-1-hydroxycyclohexyl)-4-fluoro-N-(methylsulfonyl)benzo[d]thiazole-6-carboxamide]
0.017 | 0.21 | O=C(O)c1cccc2nc([C@]3(O)CC[C@@H](OCc4c(-c5c(Cl)cccc5Cl)noc4C4CC4)CC3)sc12 [Example 26, 2-((1s,4s)-4-((5-Cyclopropyl-3-(2,6-dichlorophenyl)isoxazol-4-yl)methoxy)-1-hydroxycyclohexyl)benzo[d]thiazole-7-carboxylic acid]
0.0046 | 0.037 | O=c1nc(-c2cc(F)c3nc([C@]4(O)[C@@H]5CC[C@H]4C[C@H](OCc4c(-c6c(Cl)cccc6Cl)noc4C4CC4)C5)sc3c2)[nH]o1 [Example 36, 3-(2-((1R,3s,5S,8r)-3-((5-Cyclopropyl-3-(2,6-dichlorophenyl)isoxazol-4-yl)methoxy)-8-hydroxybicyclo[3.2.1]octan-8-yl)-4-fluorobenzo[d]thiazol-6-yl)-1,2,4-oxadiazol-5(2H)-one]
0.0041 | 0.0053 | O[C@@]1(c2cnc3nn[nH]c3c2)[C@@H]2CC[C@H]1C[C@H](OCc1c(-c3c(Cl)cccc3Cl)noc1C1CC1)C2 [Example 34, (1R,3s,5S,8r)-8-(1H-[1,2,3]Triazolo[4,5-b]pyridin-6-yl)-3-((5-cyclopropyl-3-(2,6-dichlorophenyl)isoxazol-4-yl)methoxy)bicyclo[3.2.1]octan-8-ol]
0.0039 | 0.14 | O=C(O)c1cc(F)c2nc([C@]3(O)[C@@H]4CC[C@H]3C[C@H](OCc3c(-c5c(Cl)c[n+]([O-])cc5Cl)noc3C3CC3)C4)sc2c1 [Example 22, 4-(4-((((1R,3s,5S,8r)-8-(6-Carboxy-4-fluorobenzo[d]thiazol-2-yl)-8-hydroxybicyclo[3.2.1]octan-3-yl)oxy)methyl)-5-cyclopropylisoxazol-3-yl)-3,5-dichloropyridine 1-oxide]
0.003 | 1.27 | O=C(O)CNC(=O)c1cc(F)c2nc([C@]3(O)[C@@H]4CC[C@H]3C[C@H](OCc3c(-c5c(Cl)cccc5Cl)noc3C3CC3)C4)sc2c1 [Example 38, 2-(2-((1R,3s,5S,8r)-3-((5-Cyclopropyl-3-(2,6-dichlorophenyl)isoxazol-4-yl)methoxy)-8-hydroxybicyclo[3.2.1]octan-8-yl)-4-fluorobenzo[d]thiazole-6-carboxamido)acetic acid]
